In patent US11407788B2, “Prostate-specific membrane antigen (PSMA) targeting peptides” (THE CURATORS OF THE UNIVERSITY OF MISSOURI, priority 2016, dated 2022):

Experiments:
LNCaP cells = test: Competitive inhibition of peptides and their corresponding phages; settings: for competitive inhibition of peptide to its corresponding phage: peptides at 100 μM
Protocol: Competitive binding inhibition between selected phages and their encoded peptides was examined in this study. […] The bound phages were recovered and titered as described above.
It was first evaluated whether these phages bind to LNCaP cells via specific interaction with their encoding peptides. LNCaP cells were pre-incubated with the encoding peptides, followed by washing and incubation with the corresponding phages. The bound phages were then eluted and titered.

PSMA = PSMA (Homo sapiens, UniProt Q04609); settings: Aggarwal et al. 2006; read-out: IC50 of inhibition of PSMA enzymatic activity; cited from earlier work
Sequence of PSMA (Q04609 whole entry): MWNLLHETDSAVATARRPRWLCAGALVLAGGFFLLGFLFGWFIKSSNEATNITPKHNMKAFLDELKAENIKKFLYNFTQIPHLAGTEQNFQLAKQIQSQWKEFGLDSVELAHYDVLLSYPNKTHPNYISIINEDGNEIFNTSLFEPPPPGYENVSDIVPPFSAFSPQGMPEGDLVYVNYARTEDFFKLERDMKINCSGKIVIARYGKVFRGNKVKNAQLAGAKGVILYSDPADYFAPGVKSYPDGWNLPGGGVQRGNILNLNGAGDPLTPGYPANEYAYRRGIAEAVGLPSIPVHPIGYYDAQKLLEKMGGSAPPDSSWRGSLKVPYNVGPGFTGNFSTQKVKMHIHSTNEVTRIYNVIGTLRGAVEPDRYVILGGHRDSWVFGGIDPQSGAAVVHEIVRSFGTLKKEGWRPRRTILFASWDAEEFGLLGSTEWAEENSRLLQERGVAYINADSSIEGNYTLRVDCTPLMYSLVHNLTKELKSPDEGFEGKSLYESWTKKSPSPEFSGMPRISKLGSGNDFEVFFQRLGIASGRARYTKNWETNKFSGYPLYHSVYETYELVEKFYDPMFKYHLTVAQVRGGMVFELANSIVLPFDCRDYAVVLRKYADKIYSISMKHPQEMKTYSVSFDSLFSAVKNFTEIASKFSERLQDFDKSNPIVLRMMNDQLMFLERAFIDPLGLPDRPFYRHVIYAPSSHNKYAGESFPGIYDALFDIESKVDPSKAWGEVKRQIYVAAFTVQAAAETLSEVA

[1] = test system: PSMA-positive LNCaP cells; test: Apparent Kd of FAM-labeled peptides by flow cytometry in LNCaP cells; type: cell-based; settings: 4° C., 1 h
[2] = test system: PSMA-positive prostate cancer C4-2 cell line; test: Apparent Kd of FAM-labeled peptides by flow cytometry in C4-2 cells; type: cell-based

With NRPDSAQFWLHH the “competitive inhibition of peptide to its corresponding phage” value (LNCaP cells) was “negligible” and the “competitive inhibition of peptide to its corresponding phage at various concentrations” value (LNCaP cells; series of concentrations) was “does not affect the binding”.
In the case of WQPDTAHHWATL, the IC50 (PSMA) is listed as 23 µM and the Kd [1] is listed as 23.6 µM.
For HSDNHYRPADKL [phage-derived peptide], the “competitive inhibition of peptide to its corresponding phage” value (LNCaP cells) was “negligible” and the “affinity to C4-2 cells compared to LNCaP cells” value [2] was “less affinity”.
In the case of SMAGEQISWALI, the “competitive inhibition of peptide to its corresponding phage” value (LNCaP cells) is reported as “negligible”.
For YVNSHSILGYTG, the “competitive inhibition of peptide to its corresponding phage” value (LNCaP cells) was “relatively weaker competitive inhibition”.
Sequence KYLAYPDSVHIW has a Kd [1] of 14.4 µM.
For TGHLYPTRMEIQ [phage-derived peptide], the “competitive inhibition of peptide to its corresponding phage” value (LNCaP cells) was “relatively weaker competitive inhibition” and the “affinity to C4-2 cells compared to LNCaP cells” value [2] was “less affinity”.
For QPGHAILAQHPT, the “competitive inhibition of peptide to its corresponding phage” value (LNCaP cells) was “negligible”.
With YPTDWLWHGHNK the “competitive inhibition of peptide to its corresponding phage” value (LNCaP cells) was “negligible”.
